These results are taken from patent publication US20030119800A1, “Bone anabolic compounds and methods of use” (priority 2001, published 2003).

Data set [1] concerns calvaria-derived murine osteoblastic cells. Briefly: Etoposide-induced apoptosis of calvaria-derived osteoblastic cells. The data set is classed as cell-based, mouse. The settings on record: for difference in potency in osteoblasts from one sex versus the other: cell preparations from females or males; for etoposide-induced apoptosis in primary cultures of osteoblasts: cells from female or male mice, dose dependent manner; for effect of synthesis inhibitor on the protective effect of E2 on etoposide-induced apoptosis: murine calvaria derived osteoblasts, doses not affecting cell viability, data not shown. The text has this: HeLa cells were co-transfected with reporter constructs in which SRE or AP-1 drive the expression of secreted alkaline phosphatase (SEAP), along with the wild type ERα (A and B); or its ligand binding domain (E), or E fused to a membrane (E-Mem) or nuclear (E-Nuc) localization sequence (A). A dominant negaitve (dn) MEK or dn Jnk were also introduced into a subset of the ERα transfected cells. […] In FIGS. 1A and 1B, 100% indicates activity in vehicle treated cells. (C) HeLa cells were co-transfected with the ERα and nEGFP and wild type or dn mutants of the indicated transcription factors. […] (D) HeLa cells (upper panel) were transiently co-transfected with the ERα, a nonphosphorylatable dn mutant of Bad. Calvaria-derived murine osteoblastic cells (lower panel) were pre-treated with the P13K inhibitor wortmannin. Cells were then treated as in (C). […] (E) Proposed model for a kinase-mediated non-genotropic regulation of gene transcription and apoptosis by sex steroids.
(§1) Osteoblastic cells (A) were isolated from calvaria of neonatal female or male mice, the sex of which was determined by Southern blot analysis of liver DNA with a Y chromosome specific cDNA probe; and cultured as previously described. The ability of the indicated steroids to protect against etoposide induced apoptosis was determined as in FIG. 1D, lower panel. (B) Osteoclasts were generated in bone marrow cultures from adult female or male mice, and then treated with vehicle or the indicated concentrations of steroids for 24 hours at which point the number of cells undergoing apoptosis was determined. Representative results from 1 of 4 females and 1 of 4 males examined are shown. Each point represents the mean of triplicate determinations±SD. *p<0.05 vs. vehicle, by ANOVA. (C & D) Eight-month old Swiss Webster mice (n=8-10 per group) were sham-operated, ovariectomized (OVX) or orchidectomized (ORX). […] BMD and wet uterine or seminal vesicle weight was determined six weeks later. Bars indicate means±SD. *p<0.05 vs OVX or ORX.
(§2) Quantification of apoptotic cells in vitro: Apoptosis of HeLa cells or calvaria-derived osteoblastic cells was quantified by direct visualization of changes in nuclear morphology or by trypan blue staining, respectively, as previously described (Kousteni et al, 2001). Apoptosis of osteoclasts, derived from bone marrow cells cultured with 30 ng/ml M-CSF and 30 ng/ml soluble RANK ligand, was quantified by measuring caspase 3 activity as previously described (Weinstein et al, 2002).

For data set [2], the system named is osteoclasts generated in bone marrow cultures from adult female or male mice. Briefly: Osteoclast apoptosis in bone marrow derived cultures. It is filed as cell-based, mouse. Here is the method:
as §1
FIG. 8 illustrates the pro-apoptotic effect of sex steroids on osteoclasts requires Src/ERK signaling. […] After 24 hours, the percentage of apoptotic osteoclasts was determined as in FIG. 7.
as §2

Data set [3] relates to OVX or ORX Swiss Webster mice. Briefly: Gonadectomized (OVX or ORX) Swiss Webster mice with 60-day slow release pellets: bone and reproductive tissues. It is filed as in vivo, mouse. The settings on record: for gonadectomy-induced changes (osteoblast apoptosis, loss of BMD, osteoblastogenesis and osteoclastogenesis): replacement dose pellets (E2 0.025 mg, DHT 10 mg), OVX or ORX, irrespective of sex. The method, then: as §1
FIG. 9 illustrates the equivalence of the skeletal actions of estrogens and androgens in female and male mice. […] Six weeks later, osteoblast apoptosis in histologic sections of the vertebrae (A), osteoblastogenesis and osteoclastogenesis in ex vivo bone marrow cultures (B and C), and serum osteocalcin concentration (D) were determined. Bars indicate means±SD, *p<0.05 vs OVX or ORX.
Global, spine and hindlimb BMD was determined at both 4 and 6 weeks later in the experiment with the 8 month old females, and at 6 weeks only in the experiments with the 6 month old females and males (A, B and C). The 6 week BMD data in females (B) represent pooled values from the two experiments with the 6- and the 8-month old mice.
Longitudinal undecalcified sections of the distal femur are shown in (B). […] Osteoblast apoptosis in sections of L1-L4 vertebrae from females (8 month old) and males (C).
Histomorphometric analysis of L1-L4 vertebrae from 6 month old females (A-F) and pooled serum osteocalcin levels from the 6 and 8 month old females (G). […] The ANGELS compounds described herein are useful for maintaining and/or increasing bone mass and/or strength and/or density in mammals. Mammals, preferably humans, in need of such compounds can include those suffering from such conditions as female osteoporosis (post menopausal), male osteoporosis, glucocorticoid-induced osteoporosis, immobilization and aging-related osteoporosis, idiopathic or juvenile osteoporosis, transplantation-related osteoporosis, and alveolar ridge bone loss. In addition, the compounds described herein are particularly useful for administration to subjects that are unable or unwilling to tolerate therapies that have a masculinizing or feminizing effect. For example, subjects such as breast cancer patients (especially those with bone metastasis on gonadotropin […] hormone (GnRH) or ovariectomized), prostrate cancer patients (especially those on GnRH/castration therapy), and myeloma/lymphoma patients are frequently poor candidates for treatment with estrogen or androgens because of the risk of a recurrence of the underlying condition, e.g., cancer.
Wet uterine (A) or seminal vesicle weight (B) of female and male mice described in FIG. 11. […] Note the following morphologic differences in the uteri of OVX- and OVX+4-estren-3α,17β-diol-treated mice as compared to uteri from sham-operated and OVX+E2-treated mice: thin and atrophic columnar epithelium; compact stroma; decreased number of glands; decreased nucleus to cytoplasmic ratio in the columnar epithelial, endometrial stroma, and myometrial cells; and absence of mitotic activity. (D) Proliferation of MCF-7 cells was determined by ^3H-thymidine uptake.
For these studies, mature Swiss Webster mice (8 month old), n=8-10 per group, were sham-operated or gonadectomized (GNDX). […]

In data set [4] the test system is cells from mice lacking both ERα and ERβ (DERKO). To be noted: cited from earlier work.
A further data set concerns DERKO mice. The settings on record: mouse, in vivo; cited from earlier work.
The next data set deals with Bad. Kind of data set: E2-induced phosphorylation of Bad. The settings on record: studies not shown (Kousteni et al, 2002). The data set is classed as cell-based.
In another data set the target is T1, ERα (Homo sapiens, UniProt P03372).
T1 construct: HeLa cells transfected with the full length ERα; expressed in transfected cells; host or cells: HeLa
Briefly: SRE-SEAP and AP-1-SEAP reporter assays in HeLa cells transfected with ERα. The data set is classed as cell-based. To be noted: steroids 10^−8 M for 15 minutes (E2 as little as five minutes), SEAP six hours later. Here is the method:
HeLa cells were co-transfected with reporter constructs in which SRE or AP-1 drive the expression of secreted alkaline phosphatase (SEAP), along with the wild type ERα (A and B); or its ligand binding domain (E), or E fused to a membrane (E-Mem) or nuclear (E-Nuc) localization sequence (A). A dominant negaitve (dn) MEK or dn Jnk were also introduced into a subset of the ERα transfected cells. Cells were exposed to vehicle or the indicated steroids (10^−8M) for 15 minutes. The steroid containing media were then removed, the cells were washed twice, and the cultures were continued in fresh medium without steroids. Supernatants were collected six hours later and SEAP activity was assayed. In FIGS. 1A and 1B, 100% indicates activity in vehicle treated cells. (C) HeLa cells were co-transfected with the ERα and nEGFP and wild type or dn mutants of the indicated transcription factors. […] (D) HeLa cells (upper panel) were transiently co-transfected with the ERα, a nonphosphorylatable dn mutant of Bad. […] Cells were then treated as in (C).
Transient transfections and reporter assays: HeLa cells were transfected using Lipofectamine Plus (Life Technologies Inc.). For reporter assays (luciferase or secreated alkaline phosphatase SEAP), serum-starved cells were treated with the indicated steroids for 15 min after which the steroid-containing media were removed, cells washed twice with 1% BSA in PBS, and fresh media without steroid were added. SEAP or luciferase assays were performed 6 h later using the Great EscAPe SEAP Chemiluminescence Kit (Clontech, Palo Alto, Calif.) or the dual luciferase Kit (Promega, Madison, Wis.), respectively, according to the manufacturer's instructions. Both reporter activities were normalized to renilla luciferase activity.

Each structure is given as a SMILES string. Starred links: 1 amine or outer side, 2 acyl side, 3 side chain; linkers in the order of their positions; H or OH if unused. Positions of bridges follow the written chain, without caps; N, C: chain ends. Non-standard residues stand in square brackets, D forms with d. Residues, ends and D or L forms follow the SMILES beside them. Chains are numbered I, II in the order given. Actinocin(9to1) = Cc1c2oc3c(C)ccc(C(=O)[*:1])c3nc-2c(C(=O)[*:2])c(N)c1=O; NMeV = CN[C@H](C(=O)O)C(C)C; Sar = CNCC(=O)O

T1 sequence (P03372 whole entry): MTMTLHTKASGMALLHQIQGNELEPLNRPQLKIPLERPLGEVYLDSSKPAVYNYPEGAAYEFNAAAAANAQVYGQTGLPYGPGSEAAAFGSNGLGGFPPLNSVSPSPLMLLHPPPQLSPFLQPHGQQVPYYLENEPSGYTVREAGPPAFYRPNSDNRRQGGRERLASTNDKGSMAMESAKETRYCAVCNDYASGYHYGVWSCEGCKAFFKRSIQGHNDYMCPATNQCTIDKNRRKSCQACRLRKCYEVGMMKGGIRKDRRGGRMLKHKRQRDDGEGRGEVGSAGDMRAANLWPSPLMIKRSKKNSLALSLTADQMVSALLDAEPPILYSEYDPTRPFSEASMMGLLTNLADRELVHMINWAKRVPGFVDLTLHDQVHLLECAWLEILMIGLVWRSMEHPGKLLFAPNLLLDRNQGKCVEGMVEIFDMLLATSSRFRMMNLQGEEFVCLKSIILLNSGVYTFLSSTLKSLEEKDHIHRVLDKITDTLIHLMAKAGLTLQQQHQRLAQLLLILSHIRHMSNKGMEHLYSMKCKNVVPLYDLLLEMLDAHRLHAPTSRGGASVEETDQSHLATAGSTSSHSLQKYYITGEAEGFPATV

As for `C[C@]12CCC(=O)C[C@@H]1CC[C@@H]1[C@@H]2CC[C@]2(C)[C@@H](O)CC[C@@H]12` [DHT, dyhydrotestosterone], in data set [1], the “difference in potency in osteoblasts from one sex versus the other” value is given as “no difference” and the “etoposide-induced apoptosis in primary cultures of osteoblasts” value is “attenuated etoposide-induced apoptosis”. The “difference in potency in osteoclasts from females and males” value in data set [2] is “no difference”. The “bone compression strength in the vertebrae, male mice” value in data set [3] (L5, ORX) is on record as “equally effective”. For the same compound, the “BMD values in the spine versus the untreated ORX group” value in data set [3] (ORX males, 6 weeks) is given as “not”. Moreover, in data set [3] (OVX females, pellets DHT 10 mg or 4-estren-3α,17β-diol 7.6 mg), the wet uterine weight result was “did restore”. Besides, in data set [3], the “gonadectomy-induced changes (osteoblast apoptosis, loss of BMD, osteoblastogenesis and osteoclastogenesis)” value is listed as “effectively prevented”.
As for `C[C@]12CC[C@@H]3c4ccc(O)cc4CC[C@H]3[C@@H]1CC[C@@H]2O` [E2, 17β-estradiol], in data set [1], the “difference in potency in osteoblasts from one sex versus the other” value is given as “no difference” and the “etoposide-induced apoptosis in primary cultures of osteoblasts” value is recorded as “attenuated etoposide-induced apoptosis”. Moreover, the “difference in potency in osteoclasts from females and males” value in data set [2] was “no difference”. In data set [3] (4-estren-3α,17β-diol 7.6 mg pellet, E2 pharmacologic dose 100× the replacement dose), the “effect on the bone marrow cavity” value is on record as “closing the bone marrow cavity”. The “longitudinal undecalcified sections of the distal femur” value in data set [3] (4-estren-3α,17β-diol at 300× ERT versus vehicle or E2 1× ERT, E2 at 100× ERT) is recorded as “cancellous sclerosis”. The seminal vesicle weight entry in data set [3] (ORX males, pellets E2 0.025 mg or 4-estren-3α,17β-diol 7.6 mg) is “failed to restore”. For the same compound, in data set [3] (as compared to the OVX group), the osteoclast number result is “suppressed” and the “rate of bone formation” value is “suppressed”. Besides, the “gonadectomy-induced changes (osteoblast apoptosis, loss of BMD, osteoblastogenesis and osteoclastogenesis)” value in data set [3] is “effectively prevented”. Besides, in data set [4], the “ERK phosphorylation in DERKO cells” value is given as “stimulates”, the “osteoblast apoptosis in DERKO cells” value is “prevents” and the “osteoclast apoptosis in DERKO cells” value is “stimulates”. In addition, in the data set on DERKO mice, the “bone loss following OVX in DERKO mice” value is reported as “prevented”.
Regarding `C[C@]12CC[C@@H]3c4ccc(O)cc4C[C@@H](CCCCCCCCC[S+]([O-])CCCC(F)(F)C(F)(F)F)[C@H]3[C@@H]1CC[C@@H]2O` (stereo partly drawn) [ICI 182,780], the “effect of antagonist on the effects of E2 or DHT on the lifespan of osteoblasts” value in data set [1] was “blocked”. The “effect of antagonist on the effects of E2 or DHT on the lifespan of osteoclasts” value in data set [2] is listed as “blocked”. Further, in data set [4], the “effect of antagonist on the effects of E2 in the DERKO cells” value is “prevented”.
On to `COc1cccc(-c2cc(=O)c3ccccc3o2)c1N` [PD98059], for which the “effect of inhibitor on E2-induced phosphorylation of Bad” value with Bad is “abolished”.
With `Cc1ccc(-c2nn(C(C)(C)C)c3ncnc(N)c23)cc1` [PP1], the “effect of inhibitor on the pro-apoptotic effects of the sex steroids and 4-estren-3α,17β-diol on osteoclasts” value in data set [2] (pre-treatment for 1 hour prior to E2 or DHT) is given as “abrogated”.
In the case of `C[S+]([O-])c1ccc(-c2nc(-c3ccncc3)c(-c3ccc(F)cc3)[nH]2)cc1` (stereo not drawn) [SB203580], the “effect of kinase inhibitor on the anti-apoptotic effect of E2 and of 4-estren-3α,17β-diol” value in data set [1] (FIG. 1D, pre-treated calvaria-derived murine osteoblastic cells) was “not”.
As to `Cc1c2oc3c(C)ccc(C(=O)N[C@@H]4C(=O)N[C@H](C(C)C)C(=O)N5CCC[C@H]5C(=O)N(C)CC(=O)N(C)[C@@H](C(C)C)C(=O)O[C@@H]4C)c3nc-2c(C(=O)N[C@@H]2C(=O)N[C@H](C(C)C)C(=O)N3CCC[C@H]3C(=O)N(C)CC(=O)N(C)[C@@H](C(C)C)C(=O)O[C@@H]2C)c(N)c1=O` [actinomycin D] (I: T[dV]P[Sar][NMeV] / II: T[dV]P[Sar][NMeV]; ester I:1-I:C, II:1-II:C; linker I:N-II:N via Actinocin(9to1)), in data set [1], the “effect of synthesis inhibitor on the protective effect of E2 on etoposide-induced apoptosis” value is listed as “abrogated”.
As for `C[C@@H]1C[C@@H]([C@H](O)CC2CC(=O)NC(=O)C2)C(=O)[C@@H](C)C1` [cyclohexamide], the “effect of synthesis inhibitor on the protective effect of E2 on etoposide-induced apoptosis” value in data set [1] is given as “abrogated”.
In the case of `c1cn[nH]c1` [pyrazole], at ERα, the “AP-1-dependent transcriptional activity (AP-1-SEAP)” value is on record as “not” and the “SRE-dependent transcriptional activity (SRE-SEAP)” value was “not”.
